Results published in patent US8637484B2, “Modulation of growth hormone receptor expression and insulin-like growth factor expression” (Antisense Therapeutic Limited, priority 2003, dated 2014).
In the oligonucleotide strings, read from the 5' end, every base follows the letter of its sugar. An asterisk marks phosphorothioate; unmarked linkages are phosphodiester. Other units and linkages are bracketed, terminal groups are in braces. A string of capitals states the bases alone. e = 2'-O-(2-methoxyethyl) (MOE); [5mC] = 5-methylcytosine; d = 2'-deoxy (DNA)

Legend:
[1] = test system: mouse growth hormone receptor mRNA; test: Inhibition of mouse growth hormone receptor mRNA levels in b.END cells, quantitative real-time PCR; format: cell-based; conditions: dose-response studies
Method: The mouse brain endothelial cell line b.END was obtained from Dr. Werner Risau at the Max Plank Instititute (Bad Nauheim, Germany). b.END cells were routinely cultured in DMEM, high glucose (Gibco/Life Technologies, Gaithersburg, Md.) supplemented with 10% fetal calf serum (Gibco/Life Technologies, Gaithersburg, Md.). Cells were routinely passaged by trypsinization and dilution when they reached 90% confluence. Cells were seeded into 96-well plates (Falcon-Primaria #3872) at a density of 3000 cells/well for use in RT-PCR analysis.
When cells reached 65-75% confluency, they were treated with oligonucleotide. For cells grown in 96-well plates, wells were washed once with 100 μL OPTI-MEM™-1 reduced-serum medium (Invitrogen Corporation, Carlsbad, Calif.) and then treated with 130 μL of OPTI-MEM™-1 containing 3.75 μg/mL LIPOFECTIN™ (Invitrogen Corporation, Carlsbad, Calif.) and the desired concentration of oligonucleotide. Cells are treated and data are obtained in triplicate. After 4-7 hours of treatment at 37° C., the medium was replaced with fresh medium. Cells were harvested 16-24 hours after oligonucleotide treatment.
Total RNA was isolated using an RNEASY 96™ kit and buffers purchased from Qiagen Inc. (Valencia, Calif.) following the manufacturer's recommended procedures. Briefly, for cells grown on 96-well plates, growth medium was removed from the cells and each well was washed with 200 μL cold PBS. 150 μL Buffer RLT was added to each well and the plate vigorously agitated for 20 seconds. 150 μL of 70% ethanol was then added to each well and the contents mixed by pipetting three times up and down. The samples were then transferred to the RNEASY 96™ well plate attached to a QIAVAC™ manifold fitted with a waste collection tray and attached to a vacuum source. Vacuum was applied for 1 minute. 500 μL of Buffer RW1 was added to each well of the RNEASY 96™ plate and incubated for 15 minutes and the vacuum was again applied for 1 minute. An additional 500 μL of Buffer RW1 was added to each well of the RNEASY 96™ plate and the vacuum was applied for 2 minutes. 1 mL of Buffer RPE was then added to each well of the RNEASY 96™ plate and the vacuum applied for a period of 90 seconds. The Buffer RPE wash was then repeated and the vacuum was applied for an additional 3 minutes. The plate was then removed from the QIAVAC™ manifold and blotted dry on paper towels. The plate was then re-attached to the QIAVAC™ manifold fitted with a collection tube rack containing 1.2 mL collection tubes. RNA was then eluted by pipetting 140 μL of RNAse free water into each well, incubating 1 minute, and then applying the vacuum for 3 minutes.
Quantitation of growth hormone receptor mRNA levels was accomplished by real-time quantitative PCR using the ABI PRISM™ 7600, 7700, or 7900 Sequence Detection System (PE-Applied Biosystems, Foster City, Calif.) according to manufacturer's instructions. This is a closed-tube, non-gel-based, fluorescence detection system which allows high-throughput quantitation of polymerase chain reaction (PCR) products in real-time. As opposed to standard PCR in which amplification products are quantitated after the PCR is completed, products in real-time quantitative PCR are quantitated as they accumulate. This is accomplished by including in the PCR reaction an oligonucleotide probe that anneals specifically between the forward and reverse PCR primers, and contains two fluorescent dyes. A reporter dye (e.g., FAM or JOE, obtained from either PE-Applied Biosystems, Foster City, Calif., Operon Technologies Inc., Alameda, Calif. or Integrated DNA Technologies Inc., Coralville, Iowa) is attached to the 5′ end of the probe and a quencher dye (e.g., TAMRA, obtained from either PE-Applied Biosystems, Foster City, Calif., Operon Technologies Inc., Alameda, Calif. or Integrated DNA Technologies Inc., Coralville, Iowa) is attached to the 3′ end of the probe. […]

growth hormone receptor = test: [125I] hGH specific binding assay on liver microsomal membranes of treated mice; format: in vivo, mouse
Method: Specific binding assays were carried out with liver tissue using iodinated human growth hormone [^125I] hGH.
Microsomal membrane preparations were obtained as follows. 400 mg of tissue powder was homogenized in cold homogenizing buffer (50 mM Tris/HCl, 250 mM sucrose, pH 7.4). This was centrifuged at 2000 rpm for 10 min at 3° C. and the supernatant was saved. This was centrifuged again at 15,000 rpm for 20 min. Pellets were resuspended in 0.5 ml of RRA buffer with inhibitor (50 mM Tris, 20 mM MgC12, pH 7.4). Microsomal preparation samples were stored at −80° C. until the specific binding assay.
The [^125I] hGH specific binding assay was done as follows. Four glass tubes were set up for each sample, two for (−), two for (+). Different sample and solutions were added in each tube as follows (i) 0.2 ml RRA buffer (50 mM Tris, 20 mM MgCl2, 0.1% BSA, pH 7.4); (ii) 0.1 ml membrane (1/2 or 1/4 dilution); (iii) 0.1 ml bGH (10 μg/ml) for the (+) tube or 0.1 ml RRA buffer for the (−) tube; and (iv) 0.1 ml [^125I]-hGH tracer.
Samples were incubated at 4° C. with shaking overnight. The reaction was stopped with 2.5 ml of cold RRA, and the sample centrifuged at 2800 rpm for 25 min at 4° C. Supernatant was aspirated and pellets counted using the γ-counter. The specific binding capacity was calculated as: CPM(−)-CPM(+) Protein content of the microsomal samples was determined by the BCA protein assay.

[2] = test system: growth hormone receptor mRNA; test: Growth hormone receptor mRNA levels in liver, additional 1 week study; format: in vivo, mouse; conditions: one-week study
Method: Male Balb/C(a) mice were prepared and grouped for analysis as in Example 18 above.
Animals were treated and serum IGF-I levels were measured as in Example 18 above. Briefly, for the one-week study, mice were given a subcutaneous dose of saline every second day, and mismatch control or antisense with administration on days 0, 2, 4, 6. On day 7, the animals were anaesthetized with pentobarbital and non-fasting blood samples collected exactly 5 minutes later from the retrobulbar plexus through heparinized capillary tubes under light ether anesthesia. Serum IGF-I measurement was done by radioimmunoassay at day 7.
Growth hormone receptor mRNA levels in liver tissue samples from treated and untreated mice in this one-week study were assayed. The growth hormone receptor antisense inhibitor ISIS 227446 reduced growth hormone receptor mRNA levels in liver after the one-week study by 72% at the 50 mg/kg dose, relative to saline control (p<0.0001). The 30 mg/kg dose of ISIS 227446 yielded a 50% decrease in growth hormone receptor mRNA (p<0.0001). The unrelated control oligonucleotide ISIS 260120, at 50 mg/kg, reduced growth hormone receptor mRNA levels by approximately 15% (p>0.05).

[3] = 30 mg/kg every second day for one week, liver membranes

acaaagatccatacctgaga (eA*e[5mC]*eA*eA*eA*dG*dA*dT*d[5mC]*d[5mC]*dA*dT*dA*d[5mC]*d[5mC]*eT*eG*eA*eG*eA; antisense) [ISIS 227446]
IC50 [1]: ~0.025 µM
reduction of specific binding compared to saline, ¼ dilution (growth hormone receptor; 30 mg/kg): 39%
reduction of specific binding compared to saline, ½ dilution (growth hormone receptor; 30 mg/kg): 26%
Specific binding/mg protein (cpm) ¼ dilution (growth hormone receptor; [3]): 5546 ± 789 cpm
Specific binding/mg protein (cpm) ½ dilution (growth hormone receptor; [3]): 4205 ± 534 cpm
growth hormone receptor levels (growth hormone binding activity), % of control (saline) group (growth hormone receptor; 30 mg/kg sc every second day for one week): 61%
growth hormone receptor levels, % of the control (mismatch) group (growth hormone receptor; 30 mg/kg, ½ dilution experiment): 59%
decrease in growth hormone receptor mRNA in liver ([2]; 30 mg/kg): 50%
reduction of growth hormone receptor mRNA levels in liver relative to saline control ([2]; 50 mg/kg): 72%
